{"source": "ChEMBL document CHEMBL3792284", "about": "“Synthesis of triazoloquinazolinone based compounds as tubulin polymerization inhibitors and vascular disrupting agents” (Eur J Med Chem, 2016)", "type_in_all_cases": "functional", "key": {"[1]": {"experiment": "Growth inhibition of human PC3 cells at 10 uM after 48 hrs by sulforhodamine B assay", "conditions": "PC-3, 48 h, read-out: GI"}, "[2]": {"experiment": "Cytotoxicity against human HL-60(TB) cells assessed as cell growth at 10 uM after 48 hrs by sulforhodamine B assay", "conditions": "HL-60, 48 h, read-out: Activity"}, "SK-MEL-5": {"system": "SK-MEL-5", "experiment": "Growth inhibition of human SK-MEL-5 cells after 48 hrs by sulforhodamine B assay", "conditions": "SK-MEL-5, 48 h"}, "K562": {"system": "K562", "experiment": "Growth inhibition of human K562 cells at 10 uM after 48 hrs by sulforhodamine B assay", "conditions": "K562, 48 h, read-out: GI"}, "[3]": {"experiment": "Growth inhibition of human HOP62 cells after 48 hrs by sulforhodamine B assay", "conditions": "HOP-62, 48 h"}, "HUVEC [4]": {"system": "HUVEC", "experiment": "Inhibition of cell invasion of HUVEC after 24 hrs by crystal violet staining based Boyden chamber assay", "conditions": "Homo sapiens"}, "[5]": {"experiment": "Growth inhibition of human HCT15 cells after 48 hrs by sulforhodamine B assay", "conditions": "HCT-15, 48 h"}, "MCF7 [6]": {"system": "MCF7", "experiment": "Growth inhibition of human MCF7 cells at 10 uM after 48 hrs by sulforhodamine B assay", "conditions": "MCF7, 48 h, read-out: GI"}, "NCI-H522": {"system": "NCI-H522", "experiment": "Cytotoxicity against human NCI-H522 cells assessed as cell growth at 10 uM after 48 hrs by sulforhodamine B assay", "conditions": "NCI-H522, 48 h, read-out: Activity"}, "HUVEC [7]": {"system": "HUVEC", "experiment": "Inhibition of cell invasion of HUVEC at 0.01 uM after 24 hrs by crystal violet staining based Boyden chamber assay", "conditions": "Homo sapiens"}, "MCF7 [8]": {"system": "MCF7", "experiment": "Growth inhibition of human MCF7 cells after 48 hrs by sulforhodamine B assay", "conditions": "MCF7, 48 h"}, "MDA-MB-435": {"system": "MDA-MB-435", "experiment": "Growth inhibition of human MDA-MB-435 cells at 10 uM after 48 hrs by sulforhodamine B assay", "conditions": "MDA-MB-435, 48 h, read-out: GI"}}}
{"smiles": "COc1ccc(-c2nnc3n(C)c(=O)c4ccccc4n23)cc1O", "values": [{"measurement": "inhibition of growth at 10 µM", "setting": "[1]", "value": 73, "unit": "%"}, {"measurement": "growth at 10 µM", "setting": "[2]", "value": 19, "unit": "%"}, {"measurement": "GI50", "setting": "SK-MEL-5", "value": 59, "unit": "nM"}, {"measurement": "inhibition of growth at 10 µM", "setting": "K562", "value": 92, "unit": "%"}, {"measurement": "GI50", "setting": "[3]", "value": 48, "unit": "nM"}, {"measurement": "inhibition", "setting": "HUVEC [4]", "value": "Dose-dependent effect"}, {"measurement": "GI50", "setting": "[5]", "value": 52, "unit": "nM"}, {"measurement": "inhibition of growth at 10 µM", "setting": "MCF7 [6]", "value": 85, "unit": "%"}, {"measurement": "growth at 10 µM", "setting": "NCI-H522", "value": 5, "unit": "%"}, {"measurement": "inhibition at 0.01 µM", "setting": "HUVEC [7]", "value": 12, "unit": "%"}, {"measurement": "GI50", "setting": "MCF7 [8]", "value": 48, "unit": "nM"}, {"measurement": "inhibition of growth at 10 µM", "setting": "MDA-MB-435", "value": 100, "unit": "%"}]}
